# Reference: ChEMBL document CHEMBL5126615, “Identification of RAD51-BRCA2 Inhibitors Using N-Acylhydrazone-Based Dynamic Combinatorial Chemistry” (ACS Med Chem Lett, 2022)
# The source made the active and inactive calls. No cut-off for these calls is given here.
# Target: T1, DNA repair protein RAD51 homolog 1 (Homo sapiens) (UniProt Q06609)
# T1 sequence (whole entry): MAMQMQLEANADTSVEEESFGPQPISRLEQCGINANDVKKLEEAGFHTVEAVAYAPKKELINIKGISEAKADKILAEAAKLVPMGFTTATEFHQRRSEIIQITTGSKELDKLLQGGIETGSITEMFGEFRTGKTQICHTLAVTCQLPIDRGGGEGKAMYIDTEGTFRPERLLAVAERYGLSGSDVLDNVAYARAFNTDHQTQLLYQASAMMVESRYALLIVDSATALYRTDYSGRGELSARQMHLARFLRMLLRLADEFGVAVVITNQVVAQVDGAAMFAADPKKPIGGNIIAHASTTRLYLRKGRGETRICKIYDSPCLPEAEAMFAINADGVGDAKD
# Test: Binding affinity to recombinant human His-tagged RAD51 expressed in Escherichia coli Rosetta2(DE3)pLysS cells by 19F-NMR assay
row,Compound,Activity
1,O=C(CCCOc1ccc(Cl)cc1Cl)N/N=C/c1cccnc1F,Active

# Tested on: not listed separately
# Test: Inhibition of recombinant human His-tagged RAD51 expressed in Escherichia coli Rosetta2(DE3)pLysS cells/BRCA2 (unknown origin) by ELISA
row,Compound,EC50 [µM]
1,O=C(CCCOc1ccc(Cl)cc1Cl)N/N=C/c1cccc(C(F)(F)F)c1,19
2,O=C(CCCOc1ccc(Cl)cc1Cl)N/N=C/c1ccc(C(F)(F)F)nc1,18
3,O=C(CCCOc1ccc(Cl)cc1Cl)N/N=C/c1ccc2cc[nH]c2c1,50
4,CN(C)c1ccc(/C=N/NC(=O)[C@H](Cc2ccccc2)NC(=O)OC(C)(C)C)cc1,70
5,O=C(CCCOc1ccc(Cl)cc1Cl)N/N=C/c1cccnc1F,19
6,Cc1cccc(Cn2nc(C(C)(C)C)cc2C(=O)N/N=C/c2ccc(N(C)C)cc2)c1,130
7,COc1ccc(/C=N/NC(=O)CCCOc2ccc(Cl)cc2Cl)cn1,110
8,COc1cccc(/C=N/NC(=O)CCCOc2ccc(Cl)cc2Cl)c1,60
9,O=C(CCCOc1ccc(Cl)cc1Cl)N/N=C/c1ccc2nccnc2c1,35
10,O=C(CCCOc1ccc(Cl)cc1Cl)N/N=C/c1cc2c(s1)CCCC2,86
